Test results published in EP4303307A1, “METHOD FOR PRODUCING FLAVOURS USING O-METHYLTRANSFERASE FROM PLEUROTUS” (Justus-Liebig-Universität Gießen Rechtsabteilung, priority 2022, dated 2024).

Experiments:
Assay type in all cases: biochemical, P. sapidus
O-Methyltransferase [1] = experiment: Enzymatic conversion of the thiol substrate, product detected by GC-MS; settings: compared with blanks (chemical and chemical-biological)
Description: Durch die Umsetzung von 2-Methyl-3-furanthiol als Substrat mit O-Methyltransferase wird beispielhaft das breite, Substanzklassen-übergreifende, Substratspektrum der O-Methyltransferase gezeigt. Neben den unter 6. aufgeführten Substraten werden beispielhaft auch Umsetzungen unter Verwendung von 2-Methyl-3-furanthiol durchgeführt.

O-Methyltransferase [2] = experiment: Enzymatic methylation of further substrates, conversion rates (Table 2); settings: 34 °C, 500 µM educt, phosphate buffer pH 7,4 (100 mM), 24 h, without shaking; for Produktkonzentration: concentration of the methylated product
Procedure: In Tabelle 2 sind die Umsetzungsraten weiterer Ausführungsbeispiele zusammengestellt, wobei die Reaktionsbedingungen für die Umsetzungen in Tabelle 2 beispielhaft wie folgt ausgewählt wurden: Temperatur 34 °C, jeweils 500 µM Edukt- und Produktkonzentration, Phosphatpuffer pH = 7,4 (100 mM), Reaktionsdauer: 24 h, Durchführung jeweils ohne Schütteln). Tabelle 2: Weitere beispielhaft ausgewählte Umsatzraten

O-Methyltransferase [3] = experiment: Determination of enzyme kinetic parameters (Michaelis-Menten, non-linear regression)
Description: Bekanntermaßen werden Biokatalysatoren, bzw. Enzyme wie O-Methyltransferasen, auch durch die Bestimmung ihrer jeweiligen enzymkinetischen Parameter unter definierten Bedingungen charakterisiert. Daher werden anhand eines Beispiels auch die enzymkinetischen Parameter der O-Methyltransferase bestimmt. Die Versuchsergebnisse sind in Tabelle 1 zusammengestellt. Mit dem Substrat, gegenüber dem die beispielhaft untersuchte O-Methyltransferase die höchste Aktivität aufweist, sowie dem Cofaktor werden die enzymkinetischen Parameter (Km, vmax) graphisch nach nichtlinearer Regression (Michaelis-Menten, Softwarepaket OriginPro 2020) ermittelt (vgl. Fig. 8, Fig. 8A, Fig. 8B). Zudem wird beispielhaft die katalytische Konstante (kcat) sowie die katalytische Effizienz (kcat/Km) berechnet. Die resultierenden Werte sind zusammengefasst in Tabelle 1 aufgeführt. Tabelle 1: Enzymkinetische Parameter der aus P. sapidus abgeleiteten O-Methyltransferase unter Verwendung von p-Hydroxybenzaldehyd als Substrat
Fig. 1: Korrelation der Anzahl der Transkriptionskopien und der Peakflächen (normiert auf internen Standard) von p-Anisaldehyd der DK5 und MK57 Kulturen. Fig. 2: SDS-PAGE-Gel der O-Methyltransferase (L: Lysat von E. coli, P: Protein nach Reinigung mittels FPLC) und Western Blot Membran (Anti-His-Tag Antikörper). Fig. 3: Beispielhafte Umsetzung von p-Hydroxybenzaldehyd (500 µM) und SAM (500 µM) mittels O-Methyltransferase (0,16 µM) in Davies Puffer über 2 h (jeweils im Triplikat) zur Ermittlung des pH-Optimums; bei den für die Ordinatenachse gewählten willkürlichen Einheiten handelt es sich um die gerätetypische Quantifizierung der Peakfläche von p-Anisaldehyd im Chromatogramm der jeweiligen Probe aus der betreffenden Reaktionslösung nach Abschluss der Umsetzung. Fig. 4: Beispielhafte Umsetzung von p-Hydroxybenzaldehyd (500 µM) und SAM (500 µM) mittels O-Methyltransferase (0,16 µM) in 0,1 M Phosphatpuffer über 2 h bei 24 °C (jeweils im Triplikat) zur weiteren Ermittlung des pHOptimums. […]

Row | Umsetzungsrate (O-Methyltransferase [2]) [%] | Produktkonzentration (O-Methyltransferase [2]) | Structure (SMILES) | further results
1 | – | – | Cc1occc1S [2-Methyl-3-furanthiol] | Bildung des methylierten Produktes (O-Methyltransferase [1]): gesteigerte Bildung des methylierten Produktes
2 | 2 | 11,5 ± 0,3 µM | O=c1ccc2cc(O)ccc2o1 [6-Hydroxycoumarin] | –
3 | 5 | 23,8 ± 0,9 µM | COc1cc(C=O)ccc1O [Vanillin] | –
4 | – | – | O=Cc1ccc(O)cc1 [p-Hydroxybenzaldehyd] | katalytische Konstante (kcat) (O-Methyltransferase [3]; calculated, p-Hydroxybenzaldehyd as substrate): 2,5 s^-1; mittlere maximale Geschwindigkeit (vmax) (O-Methyltransferase [3]; substrate with SAM (500 µM), enzyme 0,16 µM, 0,1 M phosphate buffer pH 7,4, 34 °C, 20 min): 43,7 mU mg^-1; Km (O-Methyltransferase [3]; substrate with SAM (500 µM), enzyme 0,16 µM, 0,1 M phosphate buffer pH 7,4, 34 °C, 20 min, read-out: mittlere Michaelis-Menten-Konstante (Km)): 79 µM
